In patent US9463338B2, “Derivatives of the sinapinic acid” (PHARMASYNTHESE, priority 2013, dated 2016):
Values joined by “and” are separate entries in the source; they are usually repeats but may differ in a detail not shown here. Equal entries are not always repeated. Marks after values point to notes of the source that are not given here.

Tests used:
Type in all cases: cell-based
[1] = system: normal human dermal fibroblasts; assay: Production of type I pro-collagen in monolayer cultures of normal human dermal fibroblasts (E.I.A.); settings: 48 hours; for Procollagen Difference (%): vs DMSO
Procedure: (§1) The test system consists of monolayers of adult normal human dermal fibroblasts obtained by cultivating cells collected from a tummy tuck carried out on a person.
The used reference activator is the Transforming Growth Factor β (TGF-β) at 1 ng/ml. […]
(§2) The compound to be tested is solubilized in 1 mg/ml in DMSO, then diluted in the cells incubation medium, with a constant concentration of 0.1% (v/v) in DMSO.
Upon completion of the incubation period, the type I pro-collagen contained in the fibroblasts incubation media has been quantified using a sensitive and specific E.I.A. kit.
Upon completion of the incubation period, the proteins contained in the cellular lysates have been quantified by a spectrophotometric method (Bradford method—Bradford M. (1976) Anal. Biochem., 72, 248-254).
(§3) The statistical significance of the differences that have been observed between the <<Control>> and the <<reference product>> conditions, has been assessed through a Student test. The statistical significance of the differences that have been observed between the <<Check>> and the <<test products>> conditions, has been assessed through a one-way analysis of variance (One Way ANOVA) followed by a Holm-Sidak test (*:p<0.05).
The results are given in the form of μg of type I pro-collagen per mg of protein (average+/− the standard deviation, S.D.) and are reported in the following Table 5.

[2] = system: normal human dermal fibroblasts; assay: Production of progerin in monolayer cultures of normal human dermal fibroblasts (ELISA); settings: for Progerin % DMSO / Progerin Average / Progerin, individual values / Progerin Difference (%): 96 hours; for Progerin Difference (%): vs DMSO; for neo synthesis of progerin: under the retained experimental conditions
Text: In order to study the influence of the compounds of the invention on the concentration of progerin in the cells, the assay method described by C. Verdy, J.-E. Branka and N. Mekideche in <<Quantitative assessment of lactate and progerine production in normal human cutaneous cells during normal ageing: effect of an alaria esculenta extract>>, Int. J. Cosmetic Science, 2011, 1-5, has been used.
as §1
Insulin at 10 nM has been used as a reference product in this study. […]
as §2
Upon completion of the incubation period, on the one hand, the progerin has been quantified in the cellular lysates (obtained by ultrasonic action) through a sensitive and specific ELISA assay, and on the other hand, the proteins that are contained in the cellular lysates have been quantified by a spectrophotometric method (Bradford method—Bradford M. (1976) Anal. Biochem., 72, 248-254).
as §3

[3] = system: normal human melanocytes; assay: Melanin production of normal human melanocytes (conditioned fibroblast media); settings: 250 μM, melanocytes 72 hours
Text: These experiments allowed to show the capability of the compounds of the invention to modulate the melanin production of normal human melanocytes cultivated in D.K.K. fibroblast monolayers.
Monolayers of normal human dermal fibroblasts have been obtained by cultivating cells collected from a tummy tuck carried out on a person. For carrying out the tests, these cells have been cultivated until obtaining confluent monolayers. Monolayers of normal human melanocytes have been obtained by cultivating cells collected from a tummy tuck carried out on a person. For carrying out the tests, these cells have been cultivated until obtaining non-confluent monolayers. […]
Afterwards, the melanocytes have been incubated for 72 hours at 37° C. in a humid atmosphere with 5% of CO2, in the absence (culture medium alone) or in the presence of kojic acid at 250 μM or of conditioned fibroblast media (see above) diluted to 1/10th in the culture medium of the melanocytes.
The active ingredient has been solubilized in DMSO (Dimethyl Sulfoxide). Afterwards, the dilutions have been carried out in the cells incubation medium with a constant concentration of 0.01% (v/v) of DMSO.
Upon completion of the incubation period, the intracellular melanin content has been quantified in the melanocytic lysates by a spectrophotometric measurement at 405 nm.
Upon completion of the incubation period, the proteins contained in the cellular lysates have been quantified by a spectrophotometric method (Bradford method).
The results are given in the form of μg of intracellular melanin per mg of total proteins of the cellular layer (averages+/− the standard deviation, S.D.).
The statistical significance of the differences observed between the <<Control>> and the <<test product>> conditions, has been assessed through a one-way analysis of variance (One Way ANOVA) followed by a Holm-Sidak test (*:p<0.05).

COc1cc(/C=C/C(=O)Oc2coc(CO)cc2=O)cc(OC)c1OC(C)=O [Compound 10]
Procollagen % DMSO ([1]; 10 ng/ml): 104.6% | Procollagen Average ([1]; 10 ng/ml): 54.9 pg/mg of protein | Procollagen, individual values ([1]; 10 ng/ml): 45.6 pg/mg of protein and 48.7 pg/mg of protein and 70.3 pg/mg of protein | Procollagen Difference (%) ([1]; 10 ng/ml): 4.6% | Procollagen % DMSO ([1]; 100 ng/ml): 150.2% | Procollagen Average ([1]; 100 ng/ml): 78.8* pg/mg of protein | Procollagen, individual values ([1]; 100 ng/ml): 74.0 pg/mg of protein and 75.9 pg/mg of protein and 86.4 pg/mg of protein | Procollagen Difference (%) ([1]; 100 ng/ml): 50.2% | Procollagen % DMSO ([1]; 500 ng/ml): 175.3% | Procollagen Average ([1]; 500 ng/ml): 91.9* pg/mg of protein | Procollagen, individual values ([1]; 500 ng/ml): 90.6 pg/mg of protein and 95.4 pg/mg of protein and 89.8 pg/mg of protein | Procollagen Difference (%) ([1]; 500 ng/ml): 75.3% | Progerin % DMSO ([2]; 50 ng/ml): 23.8% | Progerin Average ([2]; 50 ng/ml): 264.1* ng/mg of protein | Progerin, individual values ([2]; 50 ng/ml): 274.9 ng/mg of protein and 225.1 ng/mg of protein and 292.3 ng/mg of protein | Progerin Difference (%) ([2]; 50 ng/ml): −76.2% | Progerin % DMSO ([2]; 500 ng/ml): 26.1% | Progerin Average ([2]; 500 ng/ml): 289.6* ng/mg of protein | Progerin, individual values ([2]; 500 ng/ml): 301.7 ng/mg of protein and 296.1 ng/mg of protein and 271.0 ng/mg of protein | Progerin Difference (%) ([2]; 500 ng/ml): −73.9% | Progerin % DMSO ([2]; 5000 ng/ml): 26.2% | Progerin Average ([2]; 5000 ng/ml): 291.4* ng/mg of protein | Progerin, individual values ([2]; 5000 ng/ml): 261.2 ng/mg of protein and 245.9 ng/mg of protein and 366.9 ng/mg of protein | Progerin Difference (%) ([2]; 5000 ng/ml): −73.8% | neo synthesis of progerin [2]: significantly decrease

COc1cc(/C=C/C(=O)Oc2ccc(CCO)cc2)cc(OC)c1OC(C)=O [Compound 2]
Progerin % DMSO ([2]; 10 ng/ml): 25.8% | Progerin Average ([2]; 10 ng/ml): 286.9* ng/mg of protein | Progerin, individual values ([2]; 10 ng/ml): 233.7 ng/mg of protein and 353.5 ng/mg of protein and 273.6 ng/mg of protein | Progerin Difference (%) ([2]; 10 ng/ml): −74.2% | Progerin % DMSO ([2]; 100 ng/ml): 23.1% | Progerin Average ([2]; 100 ng/ml): 256.4* ng/mg of protein | Progerin, individual values ([2]; 100 ng/ml): 170.6 ng/mg of protein and 196.3 ng/mg of protein and 402.4 ng/mg of protein | Progerin Difference (%) ([2]; 100 ng/ml): −76.9% | Progerin % DMSO ([2]; 500 ng/ml): 26.4% | Progerin Average ([2]; 500 ng/ml): 293* ng/mg of protein | Progerin, individual values ([2]; 500 ng/ml): 300.1 ng/mg of protein and 328.4 ng/mg of protein and 250.5 ng/mg of protein | Progerin Difference (%) ([2]; 500 ng/ml): −73.6% | neo synthesis of progerin [2]: significantly decrease

O=c1cc(CO)occ1O [Kojic acid, kojic acid, reference compound]
Melanin/Proteins % control [3]: 86.6* % | Melanin/Proteins Average [3]: 14.0 µg/mg | Melanin/Proteins, individual values [3]: 14.3 µg/mg and 13.4 µg/mg and 14.1 µg/mg
